The source of these data is patent US20100119612A1, “NANOPARTICLES COMPRISING NON-CRYSTALLINE DRUG” (Bend Research, Inc, priority 2007, published 2010).

A short description of series [1]: Measurement of free drug by 19F NMR. It is filed as physicochemical. Conditions: after 120 minutes; deuterated PBS with 2.0 wt % NaTC/POPC; 37° C.; 1000 μg/mL Drug 1 if all dissolved.
Procedure: Alternatively, free drug for a nanoparticle suspension can be measured with nuclear magnetic resonance (NMR). In this method, the nanoparticles are equilibrated in an NMR tube with a buffered deuterium oxide solution. A specified amount of a reference standard is also added to the sample, such that the final concentration of the standard in the tube is known. An NMR spectrum is then acquired, and the integration of the drug peak(s) is compared to that of the reference standard to determine the actual dissolved drug concentration. Depending on the drug, either proton NMR (in which case a suitable reference standard is deuterated trimethylsilyl propionic acid) or fluorine NMR (in which case a suitable reference standard is trifiuoroacetic acid) may be employed. Because NMR is sensitive only to materials in the solution state or in micelles, only the drug that is not sequestered in nanopartides is measured by this method.
The solution was mixed, and an ^19F internal standard solution of trifluoroacetic acid (TFA) was added. […] This solution was vortexed 1 minute, and then carefully transferred to an 8 mm glass NMR tube.
Fluorine spectra of the sample was recorded at 282.327 MHz on a Varian Gemini 2000, 300 MHz NMR equipped with a Nalorac 8 mm indirect detection probe. […] Drug resonances were integrated relative to the internal standard peak and the drug concentration determined. […]
A short description of series [2]: Log P of the drug. The series is classed as physicochemical. Conditions: octanol/water; method not stated. An excerpt: By hydrophobic is meant that the Log P of the drug is at least 4. The LogP of the drug may be at least 5, at least 6, or even at least 7. Log P, defined as the base 10 logarithm of the ratio of (1) the drug concentration in an octanol phase to (2) the drug concentration (in its unionized form if the drug may be ionized) in a water phase when the two phases are in equilibrium with each other, is a widely accepted measure of hydrophobicity. Log P may be measured experimentally or calculated using methods known in the art. When using a calculated value for Log P, the highest value calculated using any generally accepted method for calculating Log P is used. […] Preferably the Log P value is calculated by using the average value estimated using Crippen's, Viswanadhan's, and Broto's fragmentation methods.

Series [3] in a line: In vivo evaluation in dogs (Example 2, oral suspension, plasma LC/MS/MS). Also noted: species or system male beagle dogs. The conditions noted are these: fasted dogs, oral gavage, approx. 50 mL of 1.2 mgA/mL suspension. As for the experimental part: The nanoparticles of Example 2 were evaluated in vivo in dogs. Samples were dosed orally as a suspension to 6 male beagle dogs.
Animals were fasted overnight (at least 10 hours predose) through 8 hours postdose. Approximately 50 mL of suspension (1.2 mgA/mL) was administered to each dog via oral gavage, followed by approximately 5 mL water. Whole-blood samples (7-mL sodium heparin Vacutainer tubes) were taken from the jugular vein before dosing and at 0.5, 1, 2, 3, 4, 6, 8, 12, 24, and 28 hours after dosing. […] was harvested into tubes containing K2EDTA anticoagulant. Blood was maintained on wet ice prior to centrifugation to obtain plasma. Centrifugation began within 1 hour of collection, and samples were centrifuged at 2500 rpm for 15 minutes. Plasma was maintained on dry ice prior to storage at approximately −70° C. Plasma was analyzed using liquid chromatography with tandem mass spectrometry (LC/MS/MS). Crystalline Drug 1 was tested for comparison.

A short description of series [4]: Solubility of crystalline drug in 2 wt % NaTC/POPC. It is filed as physicochemical. The conditions noted are these: 2 wt % NaTC/POPC solution, fassgf or other biorelevant, thermodynamic from solid.

SMILES strings stand for the structures. In brackets after ≈: the same amount, converted by molar mass. A value given as a limit tells only on which side of the number the result lay.

For `CCOC(=O)N1c2ccc(C(F)(F)F)cc2[C@@H](N(Cc2cc(C(F)(F)F)cc(C(F)(F)F)c2)C(=O)OC)C[C@H]1CC` [Drug 1, [2R,4S] 4-[(3,5-bis-trifluoromethyl-benzyl)-methoxycarbonyl-amino]-2-ethyl-6-trifluoromethyl-3,4-dihydro-2H-quinoline-1-carboxylic acid ethyl ester], the “Free Drug” value in series [1] turned out to be 15 µg/mL. The logP in series [2] was approximately 7.55. Besides, in series [3], the “AUC0-∞” value is “<LOQ”, the Cmax result is listed as “<LOQ*” and the Tmax entry is “<LOQ”.

Turning to `CC[C@@H]1C[C@H](N(Cc2cc(C(F)(F)F)cc(C(F)(F)F)c2)C(C)=O)c2cc(C(F)(F)F)ccc2N1C(=O)OC(C)C` [Drug 2, [2R,4S] 4-[acetyl-(3,5-bis-trifluoromethyl-benzyl)-amino]-2-ethyl-6-trifluoromethyl-3,4-dihydro-2H-quinoline-1-carboxylic acid isopropyl ester], the solubility in series [4] was approximately 8 µg/mL (≈ 13.4 µM). Besides, in series [2], the logP was approximately 7.55.
